From PubChem BioAssay AID488994 (Sanford-Burnham Center for Chemical Genomics, 2010)
The source made the active and inactive calls.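 Rule for the calls: active = IC50 below 20 µM in the dose response test; inactive = the rest.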

The compounds below were run against Type-1 angiotensin II receptor (Homo sapiens) (UniProt P30556) (assay: AGTR1 antagonism selectivity check – cell-based, CHO-K1 PathHunter, luminescence, set 2, selectivity assay for APJ antagonist project, SAR follow-up (AID 488994)). Details: CHO-K1 AGTR1 PathHunter beta-arrestin.
Type-1 angiotensin II receptor (Homo sapiens), sequence (P30556 whole entry, looked up): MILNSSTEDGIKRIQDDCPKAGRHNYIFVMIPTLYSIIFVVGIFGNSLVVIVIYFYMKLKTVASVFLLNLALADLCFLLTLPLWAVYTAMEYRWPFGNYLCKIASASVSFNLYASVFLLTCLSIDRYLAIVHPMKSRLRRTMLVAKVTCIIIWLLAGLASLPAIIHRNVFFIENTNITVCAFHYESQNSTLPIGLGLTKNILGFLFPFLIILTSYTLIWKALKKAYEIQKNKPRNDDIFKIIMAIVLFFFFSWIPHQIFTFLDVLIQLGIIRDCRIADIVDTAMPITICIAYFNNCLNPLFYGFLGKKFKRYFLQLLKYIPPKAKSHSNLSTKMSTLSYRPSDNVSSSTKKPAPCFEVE

IC50, inactive:
Cc1ccnc(SCc2cc(=O)c(OC(=O)c3ccno3)co2)n1 > 79 µM
COc1cc(CSc2nc(C)cc(C)n2)ccc1OC(=O)c1ccccc1 > 79 µM
COc1cc(CSc2nc(C)cc(C)n2)ccc1OC(=O)c1ccc([N+](=O)[O-])cc1 > 79 µM
Cc1ccnc(SCc2cc(=O)c(OC(=O)c3ccc([N+](=O)[O-])o3)co2)n1 > 79 µM
CC(=O)Oc1coc(CSc2nccc(C)n2)cc1=O > 79 µM
Cc1ccnc(SCc2cc(=O)c(OC(=O)C(C)(C)C)co2)n1 > 79 µM
O=C(Nc1ccc(CSc2ncccn2)cc1)c1ccccc1 > 79 µM
COc1cc(CSc2nc(C)cc(C)n2)ccc1OC(=O)c1cccnc1 > 79 µM
Cc1ccnc(SCc2cc(=O)c(OC(=O)C(C)C)co2)n1 > 79 µM
Cc1ccnc(SCc2cc(=O)c(OCc3ccc(Cl)c([N+](=O)[O-])c3)co2)n1 > 79 µM
